From patent publication US20090005417A1, “Substituted Indazolyl Sulfonamide and 2,3-Dihydro-Indolyl Sulfonamide Compounds, their Preparation and Use in Medicaments” (LABORATORIOS DEL DR. ESTEVE S.A., priority 2004, published 2009)

Each compound was assayed against T1, 5HT6-human recombinant receptor (Homo sapiens, UniProt P50406) (assay: Binding to serotonin receptor 5-HT6 ([3H]-LSD radioligand)). Conditions: membranes of HEK-293 cells expressing the receptor; [3H]-LSD 2.7 nM; 60 min at 37° C.
T1 construct: purchased Receptor Biology; host or cells: HEK-293 cell membranes
T1 sequence (P50406 whole entry): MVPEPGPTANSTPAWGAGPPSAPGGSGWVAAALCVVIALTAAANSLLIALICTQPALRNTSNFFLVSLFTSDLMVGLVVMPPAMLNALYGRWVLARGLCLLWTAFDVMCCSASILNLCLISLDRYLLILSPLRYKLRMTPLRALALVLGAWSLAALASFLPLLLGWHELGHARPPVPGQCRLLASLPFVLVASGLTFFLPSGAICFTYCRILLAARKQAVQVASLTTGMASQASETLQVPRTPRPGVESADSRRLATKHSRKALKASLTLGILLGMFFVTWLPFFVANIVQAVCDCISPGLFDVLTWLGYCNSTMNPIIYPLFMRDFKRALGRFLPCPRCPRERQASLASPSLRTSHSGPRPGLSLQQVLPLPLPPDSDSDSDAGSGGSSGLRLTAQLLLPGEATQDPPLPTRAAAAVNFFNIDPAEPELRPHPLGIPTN
Procedure: Cell membranes of HEK-293 cells expressing the 5HT6-human recombinant receptor were supplied by Receptor Biology. In said membranes the receptor concentration is 2.18 pmol/mg protein and the protein concentration is 9.17 mg/ml. The experimental protocol follows the method of B. L. Roth et al. [B. L. Roth, S. C. Craigo, M. S. Choudhary, A. Uluer, F. J. Monsma, Y. Shen, H. Y. Meltzer, D. R. Sibley: Binding of Typical and Atypical Antipsychotic Agents to 5-Hydroxytryptamine-6 and Hydroxytryptamine-7 Receptors. The Journal of Pharmacology and Experimental Therapeutics, 1994, 268, 1403] with the following slight changes. The respective part of the literature description is hereby incorporated by reference and forms part of the disclosure.
The commercial membrane is diluted (1:40 dilution) with the binding buffer: 50 mM Tris-HCl, 10 mM MgCl2, 0.5 mM EDTA (pH 7.4). The radioligand used is [^3H]-LSD at a concentration of 2.7 nM with a final volume of 200 μl. Incubation is initiated by adding 100 μl of membrane suspension, (≈22.9 μg membrane protein), and is prolonged for 60 minutes at a temperature of 37° C. The incubation is ended by fast filtration in a Brandel Cell Harvester through fiber glass filters made by Schleicher & Schuell GF 3362 pretreated with a solution of polyethylenimine at 0.5%. The filters are washed three times with three milliliters of buffer Tris-HCl 50 mM pH 7.4. The filters are transferred to flasks and 5 ml of Ecoscint H liquid scintillation cocktail are added to each flask. The flasks are allowed to reach equilibrium for several hours before counting with a Wallac Winspectral 1414 scintillation counter. Non-specific binding is determined in the presence of 100 μM of serotonin. Tests were made in triplicate. The inhibition constants (Ki, nM) were calculated by non-linear regression analysis using the program EBDA/LIGAND described in Munson and Rodbard, Analytical Biochemistry, 1980, 107, 220, the respective part of which is hereby incorporated by reference and forms part of the disclosure.
The binding of the substituted indazolyl sulfonamide or 2,3-dihydro-indolyl sulfonamide compounds to the 5-HT6 receptor was determined as described above.
Work on `CN(C)CCN1CCc2ccc(NS(=O)(=O)c3c(Cl)nc4sccn34)cc21` [Example 9] yielded a Ki of 15.8 nM. Work on `Cc1c(S(=O)(=O)Nc2ccc3[nH]nc(C4CCN(C)CC4)c3c2)sc2ccc(Cl)cc12` [Example 4, 5-chloro-3-methyl-benzo[b]thiophene-2-sulfonic acid [3-(1-methyl-piperidin-4-yl)-1H-indazol-5-yl]-amide] yielded a Ki of 121 nM. `Cc1c(S(=O)(=O)Nc2ccc3cnn(CCN(C)C)c3c2)sc2ccc(Cl)cc12` [Example 2, 5-chloro-N-(1-(2-(dimethylamino)ethyl)-1H-indazol-6-yl)-3-methylbenzo[b]thiophene-2-sulfonamide] gave a Ki of 16.4 nM. Work on `CN(C)CCn1ncc2ccc(NS(=O)(=O)c3ccc4ccccc4c3)cc21` [Example 1, N-(1-(2-(dimethylamino)ethyl)-1H-indazol-6-yl)napthalene-2-sulfonamide] yielded a Ki of 72.6 nM.
